According to US12128035B2, “Activating pyruvate kinase R” (Novo Nordisk Health Care AG, priority 2021, dated 2024):

Tested on: 2,3-DPG blood levels
Assay: Phase 1 SAD/MAD: blood 2,3-DPG (LC-MS/MS) in healthy volunteers
Assay type: in vivo, human
Details: for median and mean reduction in 2,3-DPG, relative to baseline: all MAD dose levels
Description: In this study, SAD/MAD cohorts are randomized (3 to 1) to receive Compound 1 or placebo (P). Compound 1 was evaluated first in 4 healthy SAD cohorts and 4 healthy MAD (14-day dosing period) cohorts. Based on the safety, and PK/PD profile from HS, Compound 1 is then evaluated in 1 SCD SAD cohort and 2 SCD MAD cohorts. Specifically, based on the safety and pharmacokinetic/pharmacodynamics (PK/PD) profile in healthy volunteer studies, Compound 1 is evaluated in patients (pts) with SCD, first in a single dose (SD or SAD) cohort and then in multiple-dose (MD or MAD) cohorts (14-day and 12-week). Safety assessments include AEs, vital signs, ECGs and laboratory parameters. PK/PD blood sampling was performed on Day 1 (SAD/MAD) and Day 14 (MAD) and up to 72 h after the last dose and at the end-of-study visit. PD parameters included 2,3-DPG, ATP, and p50 in all cohorts with additional PD studies (including oxygen scan) performed only in the SCD cohorts. PD parameters included 2,3-DPG, ATP, p50, RBC deformability with controlled deoxygenation and reoxygenation (Lorrca® oxygen scan) and varying osmolality (Lorrca® osmoscan)). To maintain study blind, pt identifiers were removed when needed.
In the SAD cohorts, the subjects' blood 2,3-DPG levels were measured periodically after dosing by a qualified LC-MS/MS method for the quantitation of 2,3-DPG in blood. Decreased 2,3-DPG blood levels were observed 6 hours following a single dose of Compound 1 at all dose levels (earlier timepoints were not collected). Maximum decreases in 2,3-DPG levels generally occurred ˜24 hours after the first dose with the reduction sustained ˜48-72 hr postdose. Table 15 reports the median percentage change in 2,3-DPG blood levels, relative to baseline, measured over time in healthy volunteers after a single dose of Compound 1 (200 mg, 400 mg, 700 mg, or 1000 mg) or placebo. Table 16 reports the mean percentage change in 2,3-DPG blood levels, relative to baseline, measured over time in healthy volunteers after a single dose of Compound 1 (200 mg, 400 mg, 700 mg, or 1000 mg). Accordingly, the median and mean reduction in the concentration of 2,3-DPG, relative to baseline, was at least about 30% at all dose levels tested 24 hours after administration of the single dose.
In the MAD cohorts, the subjects' blood 2,3-DPG levels were measured periodically after dosing by a qualified LC-MS/MS method for the quantitation of 2,3-DPG in blood. […] Table 18B reports the mean percentage change in 2,3-DPG blood levels, relative to baseline, measured over time after the first dose on days 1 and 14 in healthy volunteers who received daily doses of Compound 1 (100 mg BID, 200 mg BID, 300 mg BID, or 400 mg QD) for 14 days. Accordingly, the median and mean reduction in the concentration of 2,3-DPG, relative to baseline, was at least about 25% at all dose levels tested 24 hours after administration of the first dose on day 1 and at least about 40% at all dose levels tested 24 hours after administration of the first dose on day 14.
The following procedures are employed for the analysis of ATP and 2,3-DPG in human whole blood K2EDTA using a protein precipitation extraction procedure and analysis by LC-MS/MS.
The following procedures are used for sample extraction prior to analysis via LC-MS/MS. 15.0 μL of the calibration standards, quality controls, matrix blanks, and samples are aliquoted into a 96-well plate. 50.0 μL of the internal standard spiking solution is added to all samples on the plate, with the exception of the matrix blank samples; 50.0 μL of water is added to the matrix blank samples. Subsequently, 150 μL of water is added to all samples on the plate. The plate is then covered and agitated by vortex at high speed for ten minutes, after which 750 μL of methanol is added to all samples on the plate. The plate is covered and agitated by vortex for approximately 1 minute. The plate is then centrifuged at approximately 3500 RPM at approximately 4° C. for five minutes. […]

[1] = HV 400 mg QD, Day 14, 8 h after first daily dose
[2] = HV 400 mg QD, Day 14, 12 h after first daily dose
[3] = HV 400 mg QD, Day 14, 16 h after first daily dose
[4] = HV 400 mg QD, Day 14, 24 h after first daily dose
[5] = HV 400 mg QD, Day 14, 48 h after first daily dose
[6] = HV 400 mg QD, Day 14, 72 h after first daily dose
[7] = HV single 200 mg, 0 h after dose
[8] = HV single 200 mg, 6 h after dose
[9] = HV single 200 mg, 8 h after dose
[10] = HV single 200 mg, 12 h after dose
[11] = HV single 200 mg, 16 h after dose
[12] = HV single 200 mg, 24 h after dose
[13] = HV single 200 mg, 36 h after dose
[14] = HV single 200 mg, 48 h after dose
[15] = HV single 200 mg, 72 h after dose
[16] = HV single 400 mg, 0 h after dose
[17] = HV single 400 mg, 6 h after dose
[18] = HV single 400 mg, 8 h after dose
[19] = HV single 400 mg, 12 h after dose
[20] = HV single 400 mg, 16 h after dose
[21] = HV single 400 mg, 24 h after dose
[22] = HV single 400 mg, 36 h after dose
[23] = HV single 400 mg, 48 h after dose
[24] = HV single 400 mg, 72 h after dose
[25] = HV single 700 mg, 0 h after dose
[26] = HV single 700 mg, 6 h after dose
[27] = HV single 700 mg, 8 h after dose
[28] = HV single 700 mg, 12 h after dose
[29] = HV single 700 mg, 16 h after dose
[30] = HV single 700 mg, 24 h after dose
[31] = HV single 700 mg, 36 h after dose
[32] = HV single 700 mg, 48 h after dose
[33] = HV single 700 mg, 72 h after dose
[34] = HV single 1000 mg, 0 h after dose
[35] = HV single 1000 mg, 6 h after dose
[36] = HV single 1000 mg, 8 h after dose
[37] = HV single 1000 mg, 12 h after dose
[38] = HV single 1000 mg, 16 h after dose
[39] = HV single 1000 mg, 24 h after dose
[40] = HV single 1000 mg, 36 h after dose
[41] = HV single 1000 mg, 48 h after dose
[42] = HV single 1000 mg, 72 h after dose

Compound: O=C([C@H](CO)c1ccccc1)N1CC2=C(C1)CN(S(=O)(=O)c1cnc3c(c1)OCCO3)C2 (single isomer, unassigned) [Compound 1]
- Mean Percentage Change in 2,3-DPG Levels [1]: −55%
- Median Percentage Change in 2,3-DPG Levels [1]: −56%
- Mean Percentage Change in 2,3-DPG Levels [2]: −50%
- Median Percentage Change in 2,3-DPG Levels [2]: −49%
- Mean Percentage Change in 2,3-DPG Levels [3]: −51%
- Median Percentage Change in 2,3-DPG Levels [3]: −52%
- Mean Percentage Change in 2,3-DPG Levels [4]: −53%
- Median Percentage Change in 2,3-DPG Levels [4]: −53%
- Mean Percentage Change in 2,3-DPG Levels [5]: −38%
- Median Percentage Change in 2,3-DPG Levels [5]: −40%
- Mean Percentage Change in 2,3-DPG Levels [6]: −28%
- Median Percentage Change in 2,3-DPG Levels [6]: −25%
- maximum decrease in 2,3-DPG from baseline (median) (HV MAD cohorts, Day 14): 55%
- Mean Maximum Percent Change from Baseline, 2,3-DPG (HV MAD, all doses and timepoints (N = 36)): −56.3%
- 2,3-DPG reduction sustained postdose (HV SAD cohorts): 48 to 72 h
- Mean Maximum Percent Change from Baseline, 2,3-DPG (HV SAD, all doses and timepoints (N = 24)): −46.8%
- Mean Percentage Change in 2,3-DPG Levels [7]: 0%
- Median Percentage Change in 2,3-DPG Levels [7]: 0.0%
- Mean Percentage Change in 2,3-DPG Levels [8]: −17%
- Median Percentage Change in 2,3-DPG Levels [8]: −18%
- Mean Percentage Change in 2,3-DPG Levels [9]: −21%
- Median Percentage Change in 2,3-DPG Levels [9]: −17%
- Mean Percentage Change in 2,3-DPG Levels [10]: −26%
- Median Percentage Change in 2,3-DPG Levels [10]: −25%
- Mean Percentage Change in 2,3-DPG Levels [11]: −28%
- Median Percentage Change in 2,3-DPG Levels [11]: −33%
- Mean Percentage Change in 2,3-DPG Levels [12]: −30%
- Median Percentage Change in 2,3-DPG Levels [12]: −31%
- Mean Percentage Change in 2,3-DPG Levels [13]: −31%
- Median Percentage Change in 2,3-DPG Levels [13]: −33%
- Mean Percentage Change in 2,3-DPG Levels [14]: −33%
- Median Percentage Change in 2,3-DPG Levels [14]: −29%
- Mean Percentage Change in 2,3-DPG Levels [15]: −14%
- Median Percentage Change in 2,3-DPG Levels [15]: −18%
- time of pharmacodynamic maximum (minimum of the 2,3-DPG concentration) (HV single 400 mg): ~24 h
- Mean Percentage Change in 2,3-DPG Levels [16]: 0%
- Median Percentage Change in 2,3-DPG Levels [16]: 0.0%
- Mean Percentage Change in 2,3-DPG Levels [17]: −24%
- Median Percentage Change in 2,3-DPG Levels [17]: −23%
- Mean Percentage Change in 2,3-DPG Levels [18]: −29%
- Median Percentage Change in 2,3-DPG Levels [18]: −29%
- Mean Percentage Change in 2,3-DPG Levels [19]: −35%
- Median Percentage Change in 2,3-DPG Levels [19]: −40%
- Mean Percentage Change in 2,3-DPG Levels [20]: −38%
- Median Percentage Change in 2,3-DPG Levels [20]: −35%
- Mean Percentage Change in 2,3-DPG Levels [21]: −41%
- Median Percentage Change in 2,3-DPG Levels [21]: −39%
- Mean Percentage Change in 2,3-DPG Levels [22]: −37%
- Median Percentage Change in 2,3-DPG Levels [22]: −38%
- Mean Percentage Change in 2,3-DPG Levels [23]: −34%
- Median Percentage Change in 2,3-DPG Levels [23]: −31%
- Mean Percentage Change in 2,3-DPG Levels [24]: −30%
- Median Percentage Change in 2,3-DPG Levels [24]: −30%
- Mean Percentage Change in 2,3-DPG Levels [25]: 0%
- Median Percentage Change in 2,3-DPG Levels [25]: 0.0%
- Mean Percentage Change in 2,3-DPG Levels [26]: −30%
- Median Percentage Change in 2,3-DPG Levels [26]: −29%
- Mean Percentage Change in 2,3-DPG Levels [27]: −29%
- Median Percentage Change in 2,3-DPG Levels [27]: −28%
- Mean Percentage Change in 2,3-DPG Levels [28]: −41%
- Median Percentage Change in 2,3-DPG Levels [28]: −41%
- Mean Percentage Change in 2,3-DPG Levels [29]: −46%
- Median Percentage Change in 2,3-DPG Levels [29]: −46%
- Mean Percentage Change in 2,3-DPG Levels [30]: −49%
- Median Percentage Change in 2,3-DPG Levels [30]: −49%
- Mean Percentage Change in 2,3-DPG Levels [31]: −47%
- Median Percentage Change in 2,3-DPG Levels [31]: −46%
- Mean Percentage Change in 2,3-DPG Levels [32]: −48%
- Median Percentage Change in 2,3-DPG Levels [32]: −48%
- Mean Percentage Change in 2,3-DPG Levels [33]: −32%
- Median Percentage Change in 2,3-DPG Levels [33]: −33%
- Mean Percentage Change in 2,3-DPG Levels [34]: 0%
- Median Percentage Change in 2,3-DPG Levels [34]: 0.0%
- Mean Percentage Change in 2,3-DPG Levels [35]: −18%
- Median Percentage Change in 2,3-DPG Levels [35]: −21%
- Mean Percentage Change in 2,3-DPG Levels [36]: −31%
- Median Percentage Change in 2,3-DPG Levels [36]: −33%
- Mean Percentage Change in 2,3-DPG Levels [37]: −35%
- Median Percentage Change in 2,3-DPG Levels [37]: −38%
- Mean Percentage Change in 2,3-DPG Levels [38]: −40%
- Median Percentage Change in 2,3-DPG Levels [38]: −40%
- Mean Percentage Change in 2,3-DPG Levels [39]: −44%
- Median Percentage Change in 2,3-DPG Levels [39]: −48%
- Mean Percentage Change in 2,3-DPG Levels [40]: −46%
- Median Percentage Change in 2,3-DPG Levels [40]: −47%
- Mean Percentage Change in 2,3-DPG Levels [41]: −43%
- Median Percentage Change in 2,3-DPG Levels [41]: −44%
- Mean Percentage Change in 2,3-DPG Levels [42]: −27%
- Median Percentage Change in 2,3-DPG Levels [42]: −24%
- lag of maximum decrease in blood 2,3-DPG behind maximum plasma concentration (HV single 200, 400, 700 or 1000 mg): about 24 hours
- time of maximal decrease in blood 2,3-DPG post-dose (HV single dose (400 mg), FIG. 41): 16 to 24 h
- mean maximum reduction in the concentration of 2,3-DPG (MAD study): at least 50%
- mean maximum reduction of 2,3-DPG, range (MAD study): 46.1-63.6%
- mean maximum reduction in the concentration of 2,3-DPG (SAD study): at least 40%
- mean maximum reduction of 2,3-DPG, range (SAD study): 35.4-56.1%
- median and mean reduction in 2,3-DPG, relative to baseline (24 hours after first dose on day 1): at least 25%
- median and mean reduction in 2,3-DPG, relative to baseline (24 hours after first dose on day 14): at least 40%
- median and mean reduction in the concentration of 2,3-DPG, relative to baseline (all SAD dose levels, 24 hours after the single dose): at least 30%
